Target: T1, FLT3 (Homo sapiens, UniProt P36888)
T1 construct: purchased Thermo Fisher Scientific (Life Technologies) SelectScreen
Test: SelectScreen Z'LYTE
Format: biochemical
How it was run: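 NU5455 was profiled across the SelectScreen Broad panel of kinase activity and binding assays. Z'LYTE reactions such as CSF1R ran at apparent Km ATP, while the Adapta CAMK1 assay used ATP listed as 10. Values are given as percent.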

T1 sequence (P36888 27-993): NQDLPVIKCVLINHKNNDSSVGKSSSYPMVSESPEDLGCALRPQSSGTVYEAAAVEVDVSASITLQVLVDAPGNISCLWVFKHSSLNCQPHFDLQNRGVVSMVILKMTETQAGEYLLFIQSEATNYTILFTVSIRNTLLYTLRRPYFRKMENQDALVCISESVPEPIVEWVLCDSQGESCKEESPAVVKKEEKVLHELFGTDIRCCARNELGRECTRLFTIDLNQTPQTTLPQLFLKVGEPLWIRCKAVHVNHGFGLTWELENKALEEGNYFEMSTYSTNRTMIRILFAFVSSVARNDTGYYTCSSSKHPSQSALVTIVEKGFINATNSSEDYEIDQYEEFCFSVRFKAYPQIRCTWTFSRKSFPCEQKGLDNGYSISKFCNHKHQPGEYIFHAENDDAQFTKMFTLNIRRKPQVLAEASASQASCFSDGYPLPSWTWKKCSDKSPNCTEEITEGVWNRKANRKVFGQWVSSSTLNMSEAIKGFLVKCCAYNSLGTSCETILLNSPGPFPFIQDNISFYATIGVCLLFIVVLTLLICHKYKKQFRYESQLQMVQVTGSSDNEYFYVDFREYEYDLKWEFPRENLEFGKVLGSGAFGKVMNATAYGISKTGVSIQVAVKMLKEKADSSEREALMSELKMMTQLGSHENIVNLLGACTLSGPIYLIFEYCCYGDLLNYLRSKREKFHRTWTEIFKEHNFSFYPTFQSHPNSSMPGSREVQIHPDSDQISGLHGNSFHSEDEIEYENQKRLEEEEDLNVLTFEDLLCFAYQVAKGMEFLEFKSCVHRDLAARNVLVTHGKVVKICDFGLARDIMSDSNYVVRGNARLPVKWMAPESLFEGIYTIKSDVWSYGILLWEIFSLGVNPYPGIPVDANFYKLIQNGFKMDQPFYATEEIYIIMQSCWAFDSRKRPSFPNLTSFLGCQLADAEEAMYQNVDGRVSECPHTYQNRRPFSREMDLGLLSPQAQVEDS

## CN(C(=O)CN1CCOCC1)c1ccc2sc3c(-c4cccc5c(=O)cc(N6CC7CCC(C6)O7)oc45)cccc3c2c1 [NU5455]
  inhibition at 1 µM: 9.1%
